In ChEMBL document CHEMBL5375978, “Harnessing the Reactivity of Duclauxin toward Obtaining hPTP1B1-400 Inhibitors” (J Med Chem, 2023):
Blank lines part the entries; values can stand above or below the compound they belong to. Active and inactive are the calls of the source. The calls are words filed in the database; no cut-off is given here.

Columns and labels:
[1] = Acute toxicity in Swiss Webster mouse assessed as sedation at 30 to 300 mg/kg, po and measured for 2 hrs; format: organism-based; conditions: in vivo, dose 30-300 mg/kg
[2] = Acute toxicity in Swiss Webster mouse assessed as effect on body weight loss at 30 to 300 mg/kg, po and measured after 14 days; format: organism-based; conditions: in vivo, 336 h, dose 30-300 mg/kg, time 14 day
[3] = molecular target: T1, Tyrosine-protein phosphatase non-receptor type 1 (Homo sapiens, UniProt P18031); experiment: Inhibition of wild type N-terminal 6 his tagged human PTP1B (1 to 400 residues) expressed in Escherichia coli (Rosetta, DE3) using p-NPP as substrate preincubated for 10 mins followed by substrate addition and measured after 20 mins by absorbance based analysis
T1 sequence (P18031 whole entry): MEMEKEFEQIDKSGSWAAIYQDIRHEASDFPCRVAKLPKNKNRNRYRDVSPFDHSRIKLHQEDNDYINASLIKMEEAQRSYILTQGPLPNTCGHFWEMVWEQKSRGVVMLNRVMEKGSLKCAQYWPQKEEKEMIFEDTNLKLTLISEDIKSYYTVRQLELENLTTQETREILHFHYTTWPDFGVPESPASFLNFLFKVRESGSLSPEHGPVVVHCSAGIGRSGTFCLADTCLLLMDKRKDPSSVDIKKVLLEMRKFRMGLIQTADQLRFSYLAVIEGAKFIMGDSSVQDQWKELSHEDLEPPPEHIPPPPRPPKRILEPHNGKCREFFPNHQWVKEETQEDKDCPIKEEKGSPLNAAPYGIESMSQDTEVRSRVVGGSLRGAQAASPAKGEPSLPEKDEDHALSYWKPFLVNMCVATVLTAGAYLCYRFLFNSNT

[4] = Acute toxicity in Swiss Webster mouse assessed as hyperactivity at 30 to 300 mg/kg, po and measured for 2 hrs; format: organism-based; conditions: in vivo, dose 30-300 mg/kg
[5] = Acute toxicity in Swiss Webster mouse assessed as animal death at 30 to 300 mg/kg, po and measured for 2 hrs; format: organism-based; conditions: in vivo, dose 30-300 mg/kg
[6] = Acute toxicity in Swiss Webster mouse assessed as loss of motor activity at 30 to 300 mg/kg, po and measured for 2 hrs; format: organism-based; conditions: in vivo, dose 30-300 mg/kg
[7] = Acute toxicity in Swiss Webster mouse assessed as macroscopic damage in internal organs at 30 to 300 mg/kg, po and measured after 14 days; format: organism-based; conditions: in vivo, 336 h, dose 30-300 mg/kg, time 14 day
Mus musculus [8] = experiment: Hypoglycemic activity in Swiss Webster mouse assessed as reduction in blood glucose level at 3 to 30 mg/kg preincubated for 30 mins followed by insulin dose and measured after 60 to 120 mins by insulin tolerance test; format: functional, organism-based; conditions: dose 3-30 mg/kg, time 90-150 min
[9] = Acute toxicity in Swiss Webster mouse assessed as animal death at 30 to 300 mg/kg, po and measured after 14 days; format: organism-based; conditions: in vivo, 336 h, dose 30-300 mg/kg, time 14 day
[10] = Acute toxicity in Swiss Webster mouse assessed as change in heart rate at 30 to 300 mg/kg, po and measured for 2 hrs; format: organism-based; conditions: in vivo, dose 30-300 mg/kg
Mus musculus [11] = organism: Mus musculus; experiment: Hypoglycemic activity in Swiss Webster mouse assessed as reduction in blood glucose level preincubated for 30 mins followed by insulin dose and measured at upto 120 mins by insulin tolerance test; format: functional, organism-based; conditions: time <= 150.0 min
[12] = Acute toxicity in Swiss Webster mouse assessed as lethal dose; conditions: in vivo
[13] = molecular target: T2, Tyrosine-protein phosphatase non-receptor type 1 (Homo sapiens) (UniProt P18031); experiment: Binding affinity to wild type N-terminal 6 his tagged human PTP1B (1 to 400 residues) expressed in Escherichia coli (Rosetta, DE3) assessed as affinity constant by fluorescence based analysis
T2 sequence (whole entry): T1 sequence (P18031 whole entry)

[14] = Acute toxicity in Swiss Webster mouse assessed as ataxia at 30 to 300 mg/kg, po and measured for 2 hrs; format: organism-based; conditions: in vivo, dose 30-300 mg/kg
[15] = molecular target: T2, Tyrosine-protein phosphatase non-receptor type 1 (Homo sapiens); experiment: Inhibition of wild type N-terminal 6 his tagged human PTP1B (1 to 400 residues) expressed in Escherichia coli (Rosetta, DE3) using p-NPP as substrate at 100 uM preincubated for 10 mins followed by substrate addition and measured after 20 mins by absorbance based analysis; conditions: time 30.0 min
[16] = Acute toxicity in Swiss Webster mouse assessed as macroscopic damage in internal organs at 10 to 500 mg/kg, po and measured after 14 days; format: organism-based; conditions: in vivo, 336 h, dose 10-500 mg/kg, time 14 day
[17] = Acute toxicity in Swiss Webster mouse assessed as sedation at 10 to 500 mg/kg, po and measured for 2 hrs; format: organism-based; conditions: in vivo, dose 10-500 mg/kg
[18] = Acute toxicity in Swiss Webster mouse assessed as loss of motor activity at 10 to 500 mg/kg, po and measured for 2 hrs; format: organism-based; conditions: in vivo, dose 10-500 mg/kg
[19] = Acute toxicity in Swiss Webster mouse assessed as change in heart rate at 10 to 500 mg/kg, po and measured for 2 hrs; format: organism-based; conditions: in vivo, dose 10-500 mg/kg
[20] = Acute toxicity in Swiss Webster mouse assessed as effect on body weight loss at 10 to 500 mg/kg, po and measured after 14 days; format: organism-based; conditions: in vivo, 336 h, dose 10-500 mg/kg, time 14 day
[21] = Acute toxicity in Swiss Webster mouse assessed as ataxia at 10 to 500 mg/kg, po and measured for 2 hrs; format: organism-based; conditions: in vivo, dose 10-500 mg/kg
[22] = Acute toxicity in Swiss Webster mouse assessed as animal death at 10 to 500 mg/kg, po and measured for 2 hrs; format: organism-based; conditions: in vivo, dose 10-500 mg/kg
[23] = Acute toxicity in Swiss Webster mouse assessed as animal death at 10 to 500 mg/kg, po and measured after 14 days; format: organism-based; conditions: in vivo, 336 h, dose 10-500 mg/kg, time 14 day
[24] = Acute toxicity in Swiss Webster mouse assessed as hyperactivity at 10 to 500 mg/kg, po and measured for 2 hrs; format: organism-based; conditions: in vivo, dose 10-500 mg/kg

SMILES: CC(=O)O[C@H]1[C@@H]2C(=O)c3c(C)cc(O)c4c3[C@@]1(COC4=O)C1=C2c2c(C)cc(O)c3c(=O)n(-c4ccc([N+](=O)[O-])cc4)cc(c23)C1=O
Activity [1]: Non-Toxic
Activity [2]: Non-Toxic
IC50 [3]: 3.1 µM
Activity [4]: Non-Toxic
Activity [5]: Non-Toxic
Activity [6]: Non-Toxic
Activity [7]: Non-Toxic
Activity (Mus musculus [8]): Active
Activity [9]: Non-Toxic
Activity [10]: Non-Toxic
Activity (Mus musculus [11]): Dose-Dependent Effect
LD50 [12]: 300 mg/kg
Ka [13]: 2.9 10^5/M
Activity [14]: Non-Toxic

inhibition [15]: inactive
SMILES: CO[C@@]12c3c(C)cc(O)c4c(=O)n([C@H](C(=O)O)C(C)C)cc(c34)C(=O)[C@@H]1[C@]13COC(=O)c4c(O)cc(C)c(c41)C(=O)[C@H]2[C@@H]3OC(C)=O

SMILES: CO[C@@]12c3c(C)cc(O)c4c(=O)occ(c34)C(=O)[C@@H]1[C@]13COC(=O)c4c(O)cc(C)c(c41)C(=O)[C@H]2[C@@H]3OC(C)=O
Activity [16]: Non-Toxic
Activity [17]: Non-Toxic
Activity [18]: Non-Toxic
Activity [19]: Non-Toxic
IC50 [3]: 35.6 µM
Activity [20]: Non-Toxic
Activity [21]: Non-Toxic
Activity [22]: Non-Toxic
LD50 [12]: 500 mg/kg
Activity [23]: Non-Toxic
Ka [13]: 2 10^5/M
Activity [24]: Non-Toxic

inhibition [15]: inactive
SMILES: CO[C@@]12c3c(C)cc(O)c4c(=O)n([C@@H](CC(=O)O)C(=O)O)cc(c34)C(=O)[C@@H]1[C@]13COC(=O)c4c(O)cc(C)c(c41)C(=O)[C@H]2[C@@H]3OC(C)=O

IC50 [3]: 52.4 µM
SMILES: COc1cc(-n2cc3c4c(c(C)cc(O)c4c2=O)C2=C(C3=O)[C@]34COC(=O)c5c(O)cc(C)c(c53)C(=O)[C@H]2[C@@H]4OC(C)=O)cc(OC)c1OC

IC50 [3]: 23.7 µM
SMILES: CC(=O)O[C@H]1[C@@H]2C(=O)c3c(C)cc(O)c4c3[C@@]1(COC4=O)C1=C2c2c(C)cc(O)c3c(=O)n(-c4cccc(Cl)c4)cc(c23)C1=O

IC50 [3]: 7.7 µM
Ka [13]: 2.1 10^5/M
SMILES: CO[C@@]12c3c(C)cc(O)c4c(=O)n(-c5ccc([N+](=O)[O-])cc5)cc(c34)C(=O)[C@@H]1[C@]13COC(=O)c4c(O)cc(C)c(c41)C(=O)[C@H]2[C@@H]3OC(C)=O

IC50 [3]: 12.3 µM
SMILES: CO[C@@]12c3c(C)cc(O)c4c(=O)n(-c5cccc([N+](=O)[O-])c5)cc(c34)C(=O)[C@@H]1[C@]13COC(=O)c4c(O)cc(C)c(c41)C(=O)[C@H]2[C@@H]3OC(C)=O

inhibition [15]: inactive
SMILES: CO[C@@]12c3c(C)cc(O)c4c(=O)n(-c5ccccc5)cc(c34)C(=O)[C@@H]1[C@]13COC(=O)c4c(O)cc(C)c(c41)C(=O)[C@H]2[C@@H]3OC(C)=O

IC50 [3]: 3.2 µM
SMILES: CC(=O)O[C@H]1[C@@H]2C(=O)c3c(C)cc(O)c4c3[C@@]1(COC4=O)C1=C2c2c(C)cc(O)c3c(=O)n(-c4ccc(C)cc4)cc(c23)C1=O

IC50 [3]: 32.3 µM
SMILES: CC(=O)O[C@H]1[C@@H]2C(=O)c3c(C)cc(O)c4c3[C@@]1(COC4=O)C1=C2c2c(C)cc(O)c3c(=O)n(-c4ncccc4C)cc(c23)C1=O

IC50 [3]: 27.2 µM
SMILES: CC(=O)O[C@H]1[C@@H]2C(=O)c3c(C)cc(O)c4c3[C@@]1(COC4=O)C1=C2c2c(C)cc(O)c3c(=O)n(-c4ccccc4[N+](=O)[O-])cc(c23)C1=O

IC50 [3]: 15.9 µM
SMILES: CC(=O)O[C@H]1[C@@H]2C(=O)c3c(C)cc(O)c4c3[C@@]1(COC4=O)C1=C2c2c(C)cc(O)c3c(=O)n(-c4cccc5ncccc45)cc(c23)C1=O

IC50 [3]: 12.6 µM
SMILES: CO[C@@H]1OC(=O)c2c(O)cc(C)c3c4c(c(O)c1c23)[C@]12COC(=O)c3c(O)cc(C)c(c31)C(=O)[C@H]4[C@@H]2OC(C)=O

IC50 [3]: 38.8 µM
SMILES: CC(=O)O[C@H]1[C@@H]2C(=O)c3c(C)cc(O)c4c3[C@@]1(COC4=O)C1=C2c2c(C)cc(O)c3c(=O)n(-c4ccccc4Cl)cc(c23)C1=O

IC50 [3]: 13.2 µM
SMILES: CC(=O)O[C@H]1[C@@H]2C(=O)c3c(C)cc(O)c4c3[C@@]1(COC4=O)C1=C2c2c(C)cc(O)c3c(=O)n(-c4ccccc4O)cc(c23)C1=O

IC50 [3]: 35 µM
SMILES: CC(=O)O[C@H]1[C@@H]2C(=O)c3c(C)cc(O)c4c3[C@@]1(COC4=O)C1=C2c2c(C)cc(O)c3c(=O)n(-c4ccccc4F)cc(c23)C1=O

IC50 [3]: 5.7 µM
SMILES: CC(=O)O[C@H]1[C@@H]2C(=O)c3c(C)cc(O)c4c3[C@@]1(COC4=O)C1=C2c2c(C)cc(O)c3c(=O)n(-c4ccc5ncccc5c4)cc(c23)C1=O

IC50 [3]: 21.9 µM
SMILES: CC(=O)O[C@H]1[C@@H]2C(=O)c3c(C)cc(O)c4c3[C@@]1(COC4=O)c1c(O)c3c4c(c(O)cc(C)c4c12)C(=O)OC3=O

IC50 [3]: 17.5 µM
SMILES: CC(=O)O[C@H]1[C@@H]2C(=O)c3c(C)cc(O)c4c3[C@@]1(COC4=O)C1=C2c2c(C)cc(O)c3c(=O)n(-c4ccccc4I)cc(c23)C1=O

IC50 [3]: 31.6 µM
SMILES: CC(=O)O[C@H]1[C@@H]2C(=O)c3c(C)cc(O)c4c3[C@@]1(COC4=O)C1=C2c2c(C)cc(O)c3c(=O)n(-c4ccc(O)cc4[N+](=O)[O-])cc(c23)C1=O

IC50 [3]: 36.6 µM
SMILES: CC(=O)O[C@H]1[C@@H]2C(=O)c3c(C)cc(O)c4c3[C@@]1(COC4=O)C1=C2c2c(C)cc(O)c3c(=O)[nH]cc(c23)C1=O

IC50 [3]: 14.7 µM
SMILES: COc1ccc(-n2cc3c4c(c(C)cc(O)c4c2=O)C2=C(C3=O)[C@]34COC(=O)c5c(O)cc(C)c(c53)C(=O)[C@H]2[C@@H]4OC(C)=O)cc1

IC50 [3]: 9.3 µM
SMILES: CC(=O)O[C@H]1[C@@H]2C(=O)c3c(C)cc(O)c4c3[C@@]1(COC4=O)C1=C2c2c(C)cc(O)c3c(=O)n(-c4ccc(Br)cc4)cc(c23)C1=O
